In patent US20070299109A1, “Dimeric Compounds Of Piperidine, Piperazine Or Morpholine Or Their 7-Membered Analogs Suitable For The Treatment Of Neurodegenerative Disorders” (priority 2004, published 2007):

test system: chicken dorsal root ganglion neurons; test: Neuronal viability assay (calcein-AM) in primary culture of chicken dorsal root ganglion neurons; type: cell-based, White Leghorn chick embryos; details: Gallus gallus, DRG neuron, 48 h; survival of chick DRG neurons after two days of incubation; 0% = no neurotrophic factor, 100% = 10 ng/ml NGF; read-out: [C1] DRG assay SCORE (pIC50 value scored) (converted)
Text: This assay is based on a fluorimetric Calcein-AM measurement and addresses the functional response of neurons as a quantitative measure of survival.
Dorsal root ganglia were dissected from White Leghorn chick embryos at embryonic day 10 as described previously (Skaper S. D. and Varon S. (1986) Brain Research 389, 39-46). The ganglia were trypsinised and dissociated by mild trituration in a HBSS buffer supplemented with 0.6% glucose and 0.08% trypsin. To remove non-neuronal cells by differential attachment to culture plastic, the ganglionic cell suspension was lo diluted to 2.5×10^5 cells/ml and seeded on tissue culture plastic dishes at 10 ml per 100 mm dish. After 2 h preplating, unattached neurons were collected and resuspended into Basal Eagle Medium containing 10% FCS. To remove cell aggregates, the cell suspension was passed through a nylon mesh (50 μM) pore diameter. Neuron-enriched cell suspension was plated at 5×10^4 cells/ml into poly-L-ornithine (100 μg/ml) and laminine (1 μg/ml) coated multiwell 96 plates. Compounds were dissolved in dimethyl sulfoxide and kept as a stock at −20° C. NGF and compounds were diluted in the culture medium and added to the cells immediately after plating. The final concentration of dimethyl sulfoxide in the test medium was 0.1%. After two days of incubation, neuronal viability was assessed with calcein-AM.
Neuronal viability assay using calcein AM was performed as previously described (Bozyczko-Coyne D., McKenna B. W., Connors T. J., and Neff N. T. (1993) Journal of Neuroscience Methods 50, 205-216). For the assay, calcein-AM was diluted in PBS to the final concentration (1 μM). […] Following the incubation, reading was done in a Cytofluor II at an excitation wavelength of 485 nm and an emission wavelength of 530 nm. […]
The drugs to be tested were taken from a stock solution and tested at a final concentration ranging from […] to 3.10^−9M. From the thus obtained dose response curves, the pIC50 value was calculated and scored as follows; Score 1=pIC50 value<6, Score 2=pIC50 value in the range of 6 to 8, Score 3=pIC50 value>8.

| Compound | IC50 [nM] |
| --- | --- |
| CN(c1nc2ccc(F)cc2s1)C1CCN(C(=O)CCCCCCCC(=O)N2CCC(N(C)c3nc4ccc(F)cc4s3)CC2)CC1 [Compound 5] | 10 to 1000 |
| CN(c1nc2ccccc2s1)C1CCN(C(=O)NC2CCC(CC3CCC(NC(=O)N4CCC(N(C)c5nc6ccccc6s5)CC4)CC3)CC2)CC1 (stereo not drawn) [Compound 9] | 10 to 1000 |
| c1ccc2c(c1)CCN2C1CCN(CCCN2CCC(N3CCc4ccccc43)CC2)CC1 [Compound 47] | > 1000 |
